The record followed here is ChEMBL document CHEMBL1147578, “Design, synthesis, and SAR of anthranilamide-based factor Xa inhibitors with improved functional activity” (Bioorg Med Chem Lett, 2004).

The target in assay [1] is Vitamin K-dependent protein C (Homo sapiens, UniProt P04070). In words: Inhibitory activity against activated protein C.
In the next assay the target is Coagulation factor X (Homo sapiens, UniProt P00742). The assay is described as follows: In vitro inhibitory activity against coagulation factor X.
Coagulation factor X, sequence (P00742 41-179 limits assumed): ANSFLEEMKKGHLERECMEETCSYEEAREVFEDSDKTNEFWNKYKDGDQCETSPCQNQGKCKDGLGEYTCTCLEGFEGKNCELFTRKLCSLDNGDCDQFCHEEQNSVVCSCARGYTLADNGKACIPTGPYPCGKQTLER
Coagulation factor X, sequence (P00742 235-488 limits assumed): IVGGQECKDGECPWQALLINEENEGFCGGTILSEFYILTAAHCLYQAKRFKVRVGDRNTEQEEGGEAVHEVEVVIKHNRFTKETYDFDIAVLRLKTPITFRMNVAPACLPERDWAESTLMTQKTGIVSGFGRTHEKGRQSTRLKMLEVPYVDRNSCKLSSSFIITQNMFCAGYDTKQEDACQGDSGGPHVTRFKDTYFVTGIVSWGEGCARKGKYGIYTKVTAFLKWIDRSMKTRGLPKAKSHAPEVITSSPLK
A further assay has as its target Plasminogen (Homo sapiens, UniProt P00747). In words: Inhibitory activity against plasmin.
Assay [2] concerns the target Tissue-type plasminogen activator (Homo sapiens, UniProt P00750). The assay is described as follows: Inhibitory activity against tissue type plasminogen activator.
The target in a further assay is Prothrombin (Homo sapiens, UniProt P00734). In words: Inhibitory activity against thrombin.
In the next assay the target is Serine protease 1 (Homo sapiens, UniProt P07477). The assay is described as follows: Inhibitory activity against trypsin.
Serine protease 1, sequence (P07477 whole entry): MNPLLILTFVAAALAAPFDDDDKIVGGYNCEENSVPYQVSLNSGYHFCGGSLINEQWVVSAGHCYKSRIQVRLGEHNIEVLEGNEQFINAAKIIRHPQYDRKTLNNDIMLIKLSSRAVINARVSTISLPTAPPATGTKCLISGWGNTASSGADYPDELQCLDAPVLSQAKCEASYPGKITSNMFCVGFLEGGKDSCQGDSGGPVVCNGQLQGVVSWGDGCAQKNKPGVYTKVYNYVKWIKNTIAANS

Tissue-type plasminogen activator, sequence (P00750 whole entry): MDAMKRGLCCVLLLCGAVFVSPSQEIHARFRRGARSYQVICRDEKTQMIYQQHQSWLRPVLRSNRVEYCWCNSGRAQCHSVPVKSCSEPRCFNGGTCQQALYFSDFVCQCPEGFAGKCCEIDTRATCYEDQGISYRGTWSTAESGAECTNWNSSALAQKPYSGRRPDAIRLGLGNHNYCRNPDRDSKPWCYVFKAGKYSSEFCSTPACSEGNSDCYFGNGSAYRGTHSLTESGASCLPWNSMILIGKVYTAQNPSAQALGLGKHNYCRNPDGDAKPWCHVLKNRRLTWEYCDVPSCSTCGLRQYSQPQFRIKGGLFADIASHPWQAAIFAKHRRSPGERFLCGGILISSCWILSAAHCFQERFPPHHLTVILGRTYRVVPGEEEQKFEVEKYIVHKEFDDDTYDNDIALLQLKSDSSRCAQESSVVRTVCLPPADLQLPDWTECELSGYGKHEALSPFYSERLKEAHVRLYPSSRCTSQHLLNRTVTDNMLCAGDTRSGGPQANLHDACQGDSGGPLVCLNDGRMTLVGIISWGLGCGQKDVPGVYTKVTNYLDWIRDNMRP
Plasminogen, sequence (P00747 97-580 limits assumed): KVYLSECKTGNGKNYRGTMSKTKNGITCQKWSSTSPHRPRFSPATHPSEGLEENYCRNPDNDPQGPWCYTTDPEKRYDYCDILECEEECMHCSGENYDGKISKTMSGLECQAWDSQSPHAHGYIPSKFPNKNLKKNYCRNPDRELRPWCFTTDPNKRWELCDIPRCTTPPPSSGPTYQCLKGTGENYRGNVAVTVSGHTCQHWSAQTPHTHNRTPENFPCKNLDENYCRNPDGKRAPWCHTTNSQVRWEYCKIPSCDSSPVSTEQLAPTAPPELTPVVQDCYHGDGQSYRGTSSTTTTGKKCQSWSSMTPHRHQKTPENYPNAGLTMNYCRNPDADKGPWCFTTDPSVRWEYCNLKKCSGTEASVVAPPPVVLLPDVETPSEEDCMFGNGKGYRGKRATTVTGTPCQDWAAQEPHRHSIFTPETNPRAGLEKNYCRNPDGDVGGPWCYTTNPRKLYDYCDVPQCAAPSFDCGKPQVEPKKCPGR
Plasminogen, sequence (P00747 581-810 limits assumed): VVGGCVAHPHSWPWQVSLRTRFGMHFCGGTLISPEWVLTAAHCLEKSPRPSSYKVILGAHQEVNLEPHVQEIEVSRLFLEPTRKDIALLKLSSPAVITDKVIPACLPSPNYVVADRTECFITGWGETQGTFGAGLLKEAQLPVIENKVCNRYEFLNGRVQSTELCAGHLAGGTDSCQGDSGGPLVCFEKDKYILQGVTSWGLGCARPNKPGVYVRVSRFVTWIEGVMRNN
Vitamin K-dependent protein C, sequence (P04070 43-197 limits assumed): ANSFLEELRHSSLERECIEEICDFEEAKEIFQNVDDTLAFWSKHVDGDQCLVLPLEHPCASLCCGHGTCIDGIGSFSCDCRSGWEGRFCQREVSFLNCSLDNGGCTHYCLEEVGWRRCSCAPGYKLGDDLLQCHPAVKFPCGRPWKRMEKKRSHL
Vitamin K-dependent protein C, sequence (P04070 212-461 limits assumed): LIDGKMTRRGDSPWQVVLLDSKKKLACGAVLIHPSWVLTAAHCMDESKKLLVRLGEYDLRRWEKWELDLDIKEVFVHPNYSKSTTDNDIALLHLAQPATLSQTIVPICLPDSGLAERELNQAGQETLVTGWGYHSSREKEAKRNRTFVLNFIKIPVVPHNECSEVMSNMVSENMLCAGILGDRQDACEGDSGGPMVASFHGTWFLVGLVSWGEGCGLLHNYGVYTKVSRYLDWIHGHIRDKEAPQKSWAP

Consider `C[N+]1(Cc2ccc(C(=O)Nc3ccc(Cl)cc3C(=O)Nc3ccc(Cl)cn3)cc2)CCCC1`, for which the IC50 in assay [1] was > 11 µM; against Coagulation factor X, 0.0023 µM; against Plasminogen it was > 11 µM; in assay [2], > 11 µM; against Prothrombin, > 11 µM; against Serine protease 1 it was > 11 µM.

As for `O=C(Nc1ccc(Cl)cc1C(=O)Nc1ccc(Cl)cn1)c1ccc(CN2CCOCC2)cc1`, the IC50 is > 11 µM in assay [1]; 0.14 µM against Coagulation factor X; > 11 µM against Plasminogen; > 11 µM in assay [2]; > 11 µM against Prothrombin; > 11 µM at Serine protease 1.

For `NCc1ccc(C(=O)Nc2ccc(Cl)cc2C(=O)Nc2ccc(Cl)cn2)cc1`, the IC50 in assay [1] was > 11 µM; at Coagulation factor X, 0.01 µM; at Plasminogen, > 11 µM; in assay [2], > 11 µM; against Prothrombin, > 11 µM; against Serine protease 1, > 11 µM.

Take `O=C(Nc1ccc(Cl)cc1C(=O)Nc1ccc(Cl)cn1)c1ccc(CN2CCCCC2)cc1`: the IC50 is > 11 µM in assay [1]; 0.015 µM at Coagulation factor X; > 11 µM on Plasminogen; > 11 µM in assay [2]; > 11 µM against Prothrombin; > 11 µM on Serine protease 1.

For the compound `CCN(CC)Cc1ccc(C(=O)Nc2ccc(Cl)cc2C(=O)Nc2ccc(Cl)cn2)cc1`, the IC50 was > 11 µM in assay [1]; 0.035 µM on Coagulation factor X; > 11 µM on Plasminogen; > 11 µM in assay [2]; > 11 µM against Prothrombin; > 11 µM on Serine protease 1.

On to `O=C(Nc1ccc(Cl)cc1C(=O)Nc1ccc(Cl)cn1)c1ccc(CN2CCCC2=O)cc1`, for which the IC50 in assay [1] was > 11 µM; against Coagulation factor X, 0.552 µM; on Plasminogen, > 11 µM; in assay [2] it was > 11 µM; against Prothrombin, > 11 µM; against Serine protease 1, > 11 µM.

Take `CNCCN(C)Cc1ccc(C(=O)Nc2ccc(Cl)cc2C(=O)Nc2ccc(Cl)cn2)cc1`: the IC50 in assay [1] was > 11 µM; against Coagulation factor X, 0.0068 µM; against Plasminogen, > 11 µM; in assay [2] it was > 11 µM; at Prothrombin, > 11 µM; at Serine protease 1, > 11 µM.

For `CNC1=NCCN1Cc1ccc(C(=O)Nc2ccc(Cl)cc2C(=O)Nc2ccc(Cl)cn2)cc1`, the concentration for half-maximal inhibition (IC50) in assay [1] is > 11 µM; against Coagulation factor X it was 0.0035 µM; on Plasminogen, > 11 µM; in assay [2], > 11 µM; at Prothrombin, > 11 µM; against Serine protease 1, > 11 µM.

For `NC1CCN(Cc2ccc(C(=O)Nc3ccc(Cl)cc3C(=O)Nc3ccc(Cl)cn3)cc2)CC1`, the IC50 in assay [1] was > 11 µM; against Coagulation factor X, 0.015 µM; against Plasminogen, > 11 µM; in assay [2], > 11 µM; on Prothrombin it was > 11 µM; at Serine protease 1, > 11 µM.

`O=C(Nc1ccc(Cl)cc1C(=O)Nc1ccc(Cl)cn1)c1ccc(CN2CCCC2)cc1`: the IC50 in assay [1] is > 11 µM; against Coagulation factor X, 0.016 µM; against Plasminogen, > 11 µM; in assay [2], > 11 µM; at Prothrombin, > 11 µM; against Serine protease 1, > 11 µM.

Consider `CN(CCN(C)C(=N)N)Cc1ccc(C(=O)Nc2ccc(Cl)cc2C(=O)Nc2ccc(Cl)cn2)cc1`, for which the 50% inhibitory concentration (IC50) in assay [1] is > 11 µM; against Coagulation factor X, 0.002 µM; against Plasminogen it was > 11 µM; in assay [2], > 11 µM; against Prothrombin, > 11 µM; on Serine protease 1, > 11 µM.

With `O=C(Nc1ccc(Cl)cc1C(=O)Nc1ccc(Cl)cn1)c1ccc(CN2CCNCC2)cc1`, the IC50 in assay [1] is > 11 µM; on Coagulation factor X it was 0.017 µM; against Plasminogen it was > 11 µM; in assay [2], > 11 µM; on Prothrombin it was > 11 µM; on Serine protease 1, > 11 µM.

Take `CC(=N)N(C)CCN(C)Cc1ccc(C(=O)Nc2ccc(Cl)cc2C(=O)Nc2ccc(Cl)cn2)cc1`: the IC50 in assay [1] was > 11 µM; on Coagulation factor X, 0.0011 µM; at Plasminogen, > 11 µM; in assay [2], > 11 µM; at Prothrombin, > 11 µM; against Serine protease 1, > 11 µM.

With `NC1=NCCCCN1Cc1ccc(C(=O)Nc2ccc(Cl)cc2C(=O)Nc2ccc(Cl)cn2)cc1`, the IC50 in assay [1] is > 11 µM; on Coagulation factor X it was 0.0063 µM; against Plasminogen, > 11 µM; in assay [2] it was > 11 µM; against Prothrombin it was > 11 µM; at Serine protease 1 it was > 11 µM.

As to `CC(=O)NNCc1ccc(C(=O)Nc2ccc(Cl)cc2C(=O)Nc2ccc(Cl)cn2)cc1`, the IC50 in assay [1] is > 11 µM; against Coagulation factor X, 0.04 µM; against Plasminogen, > 11 µM; in assay [2], > 11 µM; on Prothrombin, > 11 µM; against Serine protease 1 it was > 11 µM.

As to `CNCc1ccc(C(=O)Nc2ccc(Cl)cc2C(=O)Nc2ccc(Cl)cn2)cc1`, the half-inhibitory concentration (IC50) in assay [1] was > 11 µM; against Coagulation factor X, 0.007 µM; against Plasminogen, > 11 µM; in assay [2], > 11 µM; at Prothrombin it was > 11 µM; on Serine protease 1 it was > 11 µM.

In the case of `CC(=N)N1CCN(Cc2ccc(C(=O)Nc3ccc(Cl)cc3C(=O)Nc3ccc(Cl)cn3)cc2)CC1`, the IC50 was > 11 µM in assay [1]; 0.005 µM against Coagulation factor X; > 11 µM at Plasminogen; > 11 µM in assay [2]; > 11 µM at Prothrombin; > 11 µM on Serine protease 1.

As for `CN(Cc1ccc(C(=O)Nc2ccc(Cl)cc2C(=O)Nc2ccc(Cl)cn2)cc1)C1=NCCS1`, the IC50 in assay [1] was > 11 µM; against Coagulation factor X, 0.01 µM; at Plasminogen, > 11 µM; in assay [2] it was > 11 µM; against Prothrombin it was > 11 µM; on Serine protease 1 it was > 11 µM.

Turning to `NNCc1ccc(C(=O)Nc2ccc(Cl)cc2C(=O)Nc2ccc(Cl)cn2)cc1`, the IC50 was > 11 µM in assay [1]; 0.04 µM against Coagulation factor X; > 11 µM against Plasminogen; > 11 µM in assay [2]; > 11 µM on Prothrombin; > 11 µM against Serine protease 1.

Regarding `NC1=NCCCN1Cc1ccc(C(=O)Nc2ccc(Cl)cc2C(=O)Nc2ccc(Cl)cn2)cc1`, the IC50 in assay [1] was > 11 µM; against Coagulation factor X it was 0.0038 µM; against Plasminogen, > 11 µM; in assay [2] it was > 11 µM; at Prothrombin it was > 11 µM; at Serine protease 1, > 11 µM.

Regarding `CN(Cc1ccc(C(=O)Nc2ccc(Cl)cc2C(=O)Nc2ccc(Cl)cn2)cc1)C(=N)c1ccccc1`, the IC50 in assay [1] was > 11 µM; at Coagulation factor X, 0.011 µM; at Plasminogen, > 11 µM; in assay [2], > 11 µM; against Prothrombin, > 11 µM; at Serine protease 1, > 11 µM.

As for `CN(Cc1ccc(C(=O)Nc2ccc(Cl)cc2C(=O)Nc2ccc(Cl)cn2)cc1)C1=NCCO1`, the IC50 in assay [1] was > 11 µM; against Coagulation factor X it was 0.0015 µM; at Plasminogen, > 11 µM; in assay [2] it was > 11 µM; at Prothrombin, > 11 µM; against Serine protease 1 it was > 11 µM.

As to `NC(=O)C1CCN(Cc2ccc(C(=O)Nc3ccc(Cl)cc3C(=O)Nc3ccc(Cl)cn3)cc2)CC1`, the IC50 was > 11 µM in assay [1]; 0.076 µM on Coagulation factor X; > 11 µM against Plasminogen; > 11 µM in assay [2]; > 11 µM on Prothrombin; > 11 µM against Serine protease 1.
